# Test results from publication PMC12163657 (ACS Omega, 2025).
# Assay: Single-dose pharmacokinetics, rat
# Type: in vivo
# Conditions: Sprague-Dawley, serum
smiles,measurement,setting,value
"CCCN1CC(Oc2ccc([C@@H]3c4[nH]c5ccccc5c4C[C@@H](C)N3CC(C)(C)F)cc2)C1 [compound 21, (1R,3R)-2-(2-Fluoro-2-methylpropyl)-3-methyl-1-(4-((1-propylazetidin-3-yl)oxy)phenyl)-2,3,4,9-tetrahydro-1H-pyrido[3,4-b]indole]",AUC,"iv, 0.5 mg/kg",0.454 µg·h/mL
same,Cmax,"iv, 0.5 mg/kg",0.313 µg/mL
same,Vd,"iv, 0.5 mg/kg",8 L/kg
same,clearance,"iv, 0.5 mg/kg",0.8 L/h/kg
same,half-life,"iv, 0.5 mg/kg",7 h
same,AUC,"po, 5 mg/kg",2.59 µg·h/mL
same,Cmax,"po, 5 mg/kg",0.138 µg/mL
same,Tmax,"po, 5 mg/kg",1.5 h
same,bioavailability,"po, 5 mg/kg",55%
same,half-life,"po, 5 mg/kg",16 h
